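Dose response: 5 concentrations. Exposure: 48 h. Format: 96-well plates. Endpoint: linear interpolation; highest concentration if not reached. Abbreviation: GI50, concentration required for 50% inhibition of growth.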 Active and inactive are the calls of the source. Rule as the data show it: active = GI50 up to about 1.1 µM and inactive = higher.

From ChEMBL document CHEMBL1201862, “PubChem BioAssay data set” (2004) come the findings set out here.

Test systems include OVCAR-5; SNB-75; SK-MEL-28; NCI-H460; OVCAR-4; HCT-15; MOLT-4; SNB-19; OVCAR-8; KM-20L2; HCT-116; A498; HOP-92; CCRF-CEM; HCC 2998.
What all share (assay): NCI anticancer screen, dose series, 48 h

Take `CC1(n2nc(-c3ccccc3)n(-c3ccccc3)c2=O)CSC1`: the GI50 with OVCAR-5 is > 100 µM (inactive); in the assay with SNB-75 it was > 100 µM (inactive); with SK-MEL-28, > 100 µM (inactive); in the assay on NCI-H460 it was > 100 µM (inactive); with OVCAR-4 it was > 100 µM (inactive); in the assay on HCT-15, more than 100 µM. In addition, the GI50 is > 100 µM (inactive) with MOLT-4; > 100 µM (inactive) with SNB-19; > 100 µM (inactive) with OVCAR-8; > 100 µM (inactive) in the assay with KM-20L2; > 100 µM (inactive) in the assay on HCT-116; 38.2 µM (inactive) with A498. Moreover, the GI50 with HOP-92, in the assay on CCRF-CEM and in the assay with HCC 2998 was > 100 µM (inactive) in each case.
As to `CCOC(=O)[C@H]1Nc2ccc(Cl)cc2[C@H]2OCC[C@@H]12`, the GI50 is > 100 µM (inactive) in the assay on OVCAR-5; > 100 µM (inactive) in the assay with SNB-75; > 100 µM (inactive) with SK-MEL-28; > 100 µM (inactive) in the assay with NCI-H460; > 100 µM (inactive) in the assay with OVCAR-4; more than 100 µM in the assay with HCT-15. In addition, the GI50 in the assay on MOLT-4, in the assay with SNB-19, with OVCAR-8, in the assay with KM-20L2, in the assay with HCT-116 and in the assay on A498 was > 100 µM (inactive) throughout. In addition, the GI50 in the assay on CCRF-CEM and in the assay on HCC 2998 was > 100 µM (inactive) throughout.
`COc1cc(OC)c(C#N)c(OC)c1C`: the GI50 is 98.4 µM (inactive) with OVCAR-5; > 100 µM (inactive) with SK-MEL-28; > 100 µM (inactive) in the assay on NCI-H460; > 100 µM (inactive) with OVCAR-4; > 100 µM (inactive) in the assay with MOLT-4; > 100 µM (inactive) in the assay with SNB-19. Besides, the GI50 with OVCAR-8, with KM-20L2, with A498, in the assay with HOP-92 and with CCRF-CEM was > 100 µM (inactive) throughout.
In the case of `O=P(Nc1cccc(Cl)c1)(Oc1ccccc1)N(CCCl)CCCl` (stereo not given), the GI50 was 14.5 µM (inactive) in the assay on OVCAR-5; 15.6 µM (inactive) in the assay on SNB-75; 16.6 µM (inactive) with SK-MEL-28; 11.7 µM (inactive) in the assay on OVCAR-4; 13.5 µM in the assay on HCT-15; 17.4 µM (inactive) with MOLT-4. The GI50 in the assay on OVCAR-8 is 17 µM (inactive); in the assay with KM-20L2 it was 13.3 µM (inactive); in the assay on HCT-116 it was 13.1 µM (inactive); in the assay with A498 it was 14.4 µM (inactive); in the assay on HOP-92 it was 11.9 µM (inactive); in the assay with CCRF-CEM it was > 100 µM (inactive). In addition, the GI50 with HCC 2998 is 14.8 µM (inactive).
As for `COc1ccc(C2C(Cl)C(=O)N2NC(=O)c2ccc(N)cc2)cc1` (stereo not given), the GI50 was > 100 µM (inactive) in the assay on OVCAR-5; > 100 µM (inactive) in the assay with SNB-75; > 100 µM (inactive) in the assay on SK-MEL-28; > 100 µM (inactive) with NCI-H460; > 100 µM (inactive) in the assay on OVCAR-4; more than 100 µM in the assay with HCT-15. Further, the GI50 with MOLT-4, in the assay on SNB-19, in the assay with OVCAR-8, in the assay with KM-20L2, in the assay with HCT-116 and in the assay with A498 was > 100 µM (inactive) in each case. Further, the GI50 with HOP-92 was > 100 µM (inactive); in the assay with CCRF-CEM it was 93.5 µM (inactive); with HCC 2998, > 100 µM (inactive).
Take `Cc1ccc2c(c1CCCC(C)(C)O)C(=O)C(O)=C(C(C)C)C2=O`: the GI50 in the assay on SNB-75 is > 100 µM (inactive); with SK-MEL-28, > 100 µM (inactive); in the assay on NCI-H460, 47.2 µM (inactive); in the assay on OVCAR-4 it was > 100 µM (inactive); with HCT-15 it was 41.9 µM; in the assay with MOLT-4 it was 60.1 µM (inactive). In addition, the GI50 was > 100 µM (inactive) in the assay with SNB-19; 62.5 µM (inactive) in the assay on OVCAR-8; > 100 µM (inactive) with KM-20L2; 60.5 µM (inactive) in the assay with HCT-116; > 100 µM (inactive) with A498; > 100 µM (inactive) in the assay with HOP-92. The figures for the GI50 in the assay with CCRF-CEM and in the assay with HCC 2998 were 32.2 µM (inactive) and > 100 µM (inactive), respectively.
`CC1(c2ccc(Cl)cc2)C2C(=O)NC(=O)C1C(=O)NC2=O` (stereo not given): the GI50 in the assay with OVCAR-5 was > 100 µM (inactive); in the assay on SNB-75 it was > 100 µM (inactive); in the assay on SK-MEL-28, > 100 µM (inactive); with NCI-H460, > 100 µM (inactive); in the assay with OVCAR-4 it was > 100 µM (inactive); in the assay on HCT-15, more than 100 µM. Further, the GI50 in the assay on MOLT-4 is > 100 µM (inactive); with SNB-19 it was > 100 µM (inactive); in the assay with OVCAR-8 it was > 100 µM (inactive); in the assay with KM-20L2, 56.5 µM (inactive); in the assay with A498 it was > 100 µM (inactive); in the assay on HOP-92 it was > 100 µM (inactive). Moreover, the GI50 in the assay on CCRF-CEM and with HCC 2998 was > 100 µM (inactive) throughout.
In the case of `CCOC(OC1=C(C#N)CCCC1)C(CC)[Se]c1ccccc1[N+](=O)[O-]` (stereo not given), the GI50 is 31.4 µM (inactive) with OVCAR-5; 21.9 µM (inactive) with SNB-75; 34 µM (inactive) with SK-MEL-28; 34.2 µM (inactive) in the assay on NCI-H460; 17.9 µM (inactive) in the assay on OVCAR-4; 18.5 µM with HCT-15. Also, the GI50 was 25.6 µM (inactive) in the assay on MOLT-4; 29 µM (inactive) in the assay on SNB-19; 24 µM (inactive) with OVCAR-8; 17.2 µM (inactive) in the assay on KM-20L2; 19.4 µM (inactive) in the assay on HCT-116; > 100 µM (inactive) with A498. Also, the GI50 with HOP-92 is 18.4 µM (inactive); with CCRF-CEM, 20.6 µM (inactive); with HCC 2998, 17.7 µM (inactive).
Turning to `COc1ccc(/C(Cl)=C(\CN(C)C)c2ccc(OC)c(OC)c2)cc1OC.[B]`, the GI50 in the assay on OVCAR-5 is > 100 µM (inactive); in the assay with SNB-75 it was 2.5 µM (inactive); in the assay on NCI-H460, > 100 µM (inactive); in the assay on OVCAR-4, 1.19 µM (inactive); in the assay with HCT-15, more than 100 µM; in the assay on MOLT-4, > 100 µM (inactive). Further, the GI50 is 17 µM (inactive) in the assay on SNB-19; > 100 µM (inactive) with OVCAR-8; > 100 µM (inactive) in the assay with KM-20L2; 38.8 µM (inactive) in the assay on HCT-116; 33.9 µM (inactive) with A498; 2.22 µM (inactive) in the assay on HOP-92. Moreover, the GI50 in the assay with CCRF-CEM and in the assay on HCC 2998 was > 100 µM (inactive) throughout.
As for `COc1ccc(C2Oc3cc(OC)c(O)cc3[C@@H]2C)cc1` (stereo not given in full), the GI50 in the assay on OVCAR-5 was > 100 µM (inactive); with SNB-75, 3.08 µM (inactive); in the assay with SK-MEL-28, 56.8 µM (inactive); in the assay with NCI-H460 it was 57.9 µM (inactive); in the assay with OVCAR-4, 32.5 µM (inactive); in the assay on HCT-15, 16.5 µM. In addition, the GI50 in the assay on MOLT-4 is 14.9 µM (inactive); with SNB-19 it was 1.87 µM (inactive); with OVCAR-8, 23.2 µM (inactive); with KM-20L2, 49.5 µM (inactive); in the assay with HCT-116, 12.8 µM (inactive); with A498, > 100 µM (inactive). Also, the GI50 in the assay on HOP-92 was 15.3 µM (inactive); with CCRF-CEM, 15.5 µM (inactive); in the assay on HCC 2998, 57.5 µM (inactive).
